Reference: patent US7217534B2, “Methods of screening apoptosis modulating compounds, compounds identified by said methods and use of said compounds as therapeutic agents” (Institut Pasteur, priority 2002, dated 2007)

Columns and labels:
[1] = test system: IL-4-stimulated cells (TS1αβ murine T cell line); experiment: Apoptosis by cell cycle analysis (sub-G1 region, propidium iodide flow cytometry); format: cell-based
Method: (§1) A) IL-4-stimulated cells were serum-starved for 30 min and then treated with or without 10 mM M-β-CD for 30 min at 37° C. before incubation with CTx-FITC and anti-Bad or anti-Lck antibodies, followed by Cy3-labeled secondary antibody. Then, cells were analyzed by confocal microscopy. Similar results were obtained in two independent experiments. Single confocal sections show green (FITC) and red (Cy3) fluorescence. B) IL-4-stimulated cells were serum-starved for 30 min and then treated with or without 10 mM M-β-CD for 30 min at 37° C., then washed and transferred to complete medium supplemented with IL-4. At different times, apoptosis was measured. Sub G1 region of the fluorescence scale was used to determine the percentage of cells present in the initial step of apoptosis. Similar results were obtained in two independent experiments. White bars, control cells; grey bars, M-β-CD-treated cells.
(§2) TS1αβ is a murine T cell line that can be propagated independently in IL-2, IL-4 or IL-9 Cells were cultured in RPMI-1640 as previously described (Pitton et al., 1993, Cytokine 5, 362–371). Murine rIL-4 or supernatant of a HeLa subline transfected with PKCRIL-4.neo was used as a source of murine IL-4. Fluorescein isothiocyanate (FITC-)-labeled cholera toxin (CTx) B subunit, CTx-Biotin and methyl-β-cyclodextrin (M-β-CD) were obtained from Sigma-Aldrich (St. Louis, Mo.). Cy3- and Cy2-conjugated secondary antibodies were purchased from Molecular Probes (Eugene, Oreg.). Anti-mitochondria serum (mito 2813, pyruvate dehydrogenase) was a gift from Dr A. Serrano (CNB, Madrid, Spain).
A total of 2×10^5 IL-4-stimulated cells treated with or without M-β-CD were washed, resuspended in PBS, permeabilized with 0.1% Nonidet P-40 and stained with 50 μg/ml propidium iodide (PI). At different times, samples were analyzed using a EpicsXL flow cytometer (Coulter, Hialeah, Fla.). Apoptosis was measured as the percentage of cells in the sub-G1 region of the fluorescence scale having an hypodiploid DNA content.
Given that exclusion of Bad from rafts was also observed in apoptotic IL-4-deprived cells (FIG. 3A), it was analyzed whether Bad association to rafts and its integrity was necessary for prevention of apoptosis. For this purpose, IL-4-stimulated cells were treated for 30 min with or without M-β-CD in serum-free medium, then washed, resuspended in IL-4-supplemented complete medium and analyzed for induction of apoptosis at different times (FIG. 4B). […] Eight hours upon treatment, the amount of apoptotic cells detected in treated and non treated cells were similar because addition of serum restores the lipid composition of the membrane.

[2] = test system: IL-4-stimulated cells (TS1αβ murine T cell line); experiment: Cholesterol depletion, raft association of Bad and Lck by CTx-FITC confocal microscopy; format: cell-based; conditions: 10 mM, 30 min, 37° C., serum-free medium
Method: as §1, with “cells. […]” for “cells.”
IL-4-stimulated or -deprived cells were fixed with 1% paraformaidehyde for 5 min on ice, permeabilized and then incubated with CTx-FITC (20 min, 6 μg/ml) and anti-Bad antibody for 1 h in PBS-BSA. […] Finally, and after several washing steps, cells were incubated with methanol at −20° C. for 10 min, mounted wiht Vectashield medium, and analyzed by confocal microscopy. The program used for quantification of samples was Leica TSC NT version 1.5.451 (Leica, Lasertechnik, Heidelberg, Germany). […]

[3] = test system: Bad; experiment: Serine phosphorylation of Bad by immunoprecipitation and western blot; format: cell-based, murine; conditions: anti-Bad serine 136, 112 and 155 blots, IL-4-stimulated cells
Text: A) Cytoplasmic extracts from IL-4-stimulated or -deprived cells were immunoprecipitated with anti-Bad antibody and blotted with anti-Bad serine 136, 112 and 155. As internal control, the blot was developed with anti-Bad. Positive control for serine 112 and 136 phosphorylation, IL-2-stimulated cells; positive control for serine 155 phosphorylation of Bad, Bad-transfected COS cells (C). […] Molecular weight of the corresponding proteins is shown.
as §2, with “Spain). […]” for “Spain).”
Posttranslational modifications of Bad such as phosphorylation, and its role in Bad localization in rafts or mitochondria was further analyzed. […]

Molecule	time of highest level of apoptosis after treatment ([1]; 30 min treatment in serum-free medium, then IL-4-supplemented complete medium) [h]	level of apoptosis compared with control non treated cells ([1]; 30 min treatment in serum-free medium, then IL-4-supplemented complete medium, different times)	amount of apoptotic cells in treated and non treated cells ([1]; eight hours upon treatment, serum added back)	raft formation and association of Lck and Bad with rafts [2]	level of apoptosis in IL-4-stimulated cells ([1]; control IL-4-stimulated cells versus IL-4-deprived cells, 4 h to 24 h)	serine phosphorylation of Bad [3]
methyl-β-cyclodextrin [M-β-CD]	5	stronger level of apoptosis	similar	severe disruption of raft formation and association of Lck and Bad with rafts		
IL-4: Murine rIL-4 or supernatant of a HeLa subline transfected with PKCRIL-4.neo, used as source of murine IL-4 (protein, UniProt P07750 21-140, looked up) Interleukin-4: HIHGCDKNHLREIIGILNEVTGEGTPCTEMDVPNVLTATKNTTESELVCRASKVLRIFYLKHGKTPCLKKNSSVLMELQRLFRAFRCLDSSISCTMNESKSTSLKDFLESLKSIMQMDYS					no significant level of apoptosis	induces serine 136 phosphorylation of Bad, but not serine 112 and 155
